In PubChem BioAssay AID1963960 (Molecular Pharmacology Branch, DTP, NCI, 2024):
pIC50: −log10 of the molar value.

Tested on: MDA-MB-468 spheroids with HUVEC/MSC, viability
Experiment: Anticancer human tumor MDA-MB-468 cell line growth inhibition [PI3K];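 further: spheroids exposed to agents for seven days before readout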;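 on viability, T/C: 100% = DMSO vehicle control viability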
Conditions: for pIC50: curve of first compound; for viability, T/C: stronger effect = lower value
How it was run: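 Agents were dosed from a top concentration near clinical Cmax (otherwise 10 microM) in half-log decrements, alone or combined with PI3K inhibitors. The spheroids contain tumor cells plus endothelial (HUVEC) and MSC stroma; viability is measured.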

[1] = second compound 0.0316 µM, first compound 0.0316 µM
[2] = second compound 0.0316 µM, first compound 0.1 µM
[3] = second compound 0.0316 µM, first compound 0.316 µM
[4] = second compound 0.0316 µM, first compound 1 µM
[5] = second compound 0.1 µM, first compound 0.0316 µM
[6] = second compound 0.1 µM, first compound 0.1 µM
[7] = second compound 0.1 µM, first compound 0.316 µM
[8] = second compound 0.1 µM, first compound 1 µM
[9] = second compound 0.316 µM, first compound 0.0316 µM
[10] = second compound 0.316 µM, first compound 0.1 µM
[11] = second compound 0.316 µM, first compound 0.316 µM
[12] = second compound 0.316 µM, first compound 1 µM
[13] = second compound 1 µM, first compound 0.0316 µM
[14] = second compound 1 µM, first compound 0.1 µM
[15] = second compound 1 µM, first compound 0.316 µM
[16] = second compound 1 µM, first compound 1 µM
[17] = second compound 3.16 µM, first compound 0.0316 µM
[18] = second compound 3.16 µM, first compound 0.1 µM
[19] = second compound 3.16 µM, first compound 0.316 µM
[20] = second compound 3.16 µM, first compound 1 µM
[21] = second compound 10 µM, first compound 0.0316 µM
[22] = second compound 10 µM, first compound 0.1 µM
[23] = second compound 10 µM, first compound 0.316 µM
[24] = second compound 10 µM, first compound 1 µM

CC(C)NCC(C(=O)N1CCN(c2ncnc3c2C(C)CC3O)CC1)c1ccc(Cl)cc1 (centres undefined) + Cc1nc(NC(=O)N2CCCC2C(N)=O)sc1-c1ccnc(C(C)(C)C(F)(F)F)c1
pIC50 (second compound 0.0316 µM): 6.01 | pIC50 (second compound 0.1 µM): 5.92 | pIC50 (second compound 0.316 µM): 6.17 | pIC50 (second compound 1 µM): 6.37 | pIC50 (second compound 3.16 µM): 6.68 | pIC50 (second compound 10 µM): > 7.50 | viability, T/C [1]: 76.9% | viability, T/C [2]: 92.2% | viability, T/C [3]: 60.9% | viability, T/C [4]: 50.9% | viability, T/C (second compound 0.0316 µM, first compound 3.16 µM): 35.1% | viability, T/C (second compound 0.0316 µM, first compound 10 µM): 23.2% | viability, T/C [5]: 84.8% | viability, T/C [6]: 83.5% | viability, T/C [7]: 68% | viability, T/C [8]: 53.4% | viability, T/C (second compound 0.1 µM, first compound 3.16 µM): 34.2% | viability, T/C (second compound 0.1 µM, first compound 10 µM): 18.4% | viability, T/C [9]: 84.6% | viability, T/C [10]: 71.8% | viability, T/C [11]: 61% | viability, T/C [12]: 46.9% | viability, T/C (second compound 0.316 µM, first compound 3.16 µM): 26.7% | viability, T/C (second compound 0.316 µM, first compound 10 µM): 19.5% | viability, T/C [13]: 95.8% | viability, T/C [14]: 66.7% | viability, T/C [15]: 56.9% | viability, T/C [16]: 41.9% | viability, T/C (second compound 1 µM, first compound 3.16 µM): 23.2% | viability, T/C (second compound 1 µM, first compound 10 µM): 18% | viability, T/C [17]: 62.9% | viability, T/C [18]: 61% | viability, T/C [19]: 42.5% | viability, T/C [20]: 33% | viability, T/C (second compound 3.16 µM, first compound 3.16 µM): 19.3% | viability, T/C (second compound 3.16 µM, first compound 10 µM): 14.8% | viability, T/C [21]: 32.1% | viability, T/C [22]: 28.8% | viability, T/C [23]: 22% | viability, T/C [24]: 19.1% | viability, T/C (second compound 10 µM, first compound 3.16 µM): 9.63% | viability, T/C (second compound 10 µM, first compound 10 µM): 6.41%

CCN1CCN(Cc2ccc(Nc3ncc(F)c(-c4cc(F)c5nc(C)n(C(C)C)c5c4)n3)nc2)CC1 + Cc1nc(NC(=O)N2CCCC2C(N)=O)sc1-c1ccnc(C(C)(C)C(F)(F)F)c1
pIC50 (second compound 0.0316 µM): < 6.00 | pIC50 (second compound 0.1 µM): < 6.00 | pIC50 (second compound 0.316 µM): < 6.00 | pIC50 (second compound 1 µM): 6.10 | pIC50 (second compound 3.16 µM): 6.72 | pIC50 (second compound 10 µM): > 8.50 | viability, T/C (second compound 0.0316 µM, first compound 0.00316 µM): 97.9% | viability, T/C (second compound 0.0316 µM, first compound 0.01 µM): 90% | viability, T/C [1]: 83.8% | viability, T/C [2]: 113% | viability, T/C [3]: 90.8% | viability, T/C [4]: 59.9% | viability, T/C (second compound 0.1 µM, first compound 0.00316 µM): 98.3% | viability, T/C (second compound 0.1 µM, first compound 0.01 µM): 85.9% | viability, T/C [5]: 89.1% | viability, T/C [6]: 104% | viability, T/C [7]: 97.9% | viability, T/C [8]: 55.3% | viability, T/C (second compound 0.316 µM, first compound 0.00316 µM): 92.4% | viability, T/C (second compound 0.316 µM, first compound 0.01 µM): 94% | viability, T/C [9]: 93.2% | viability, T/C [10]: 81.3% | viability, T/C [11]: 80.9% | viability, T/C [12]: 52.7% | viability, T/C (second compound 1 µM, first compound 0.00316 µM): 94.9% | viability, T/C (second compound 1 µM, first compound 0.01 µM): 84.8% | viability, T/C [13]: 77% | viability, T/C [14]: 76.9% | viability, T/C [15]: 62.1% | viability, T/C [16]: 46.2% | viability, T/C (second compound 3.16 µM, first compound 0.00316 µM): 68.7% | viability, T/C (second compound 3.16 µM, first compound 0.01 µM): 58.7% | viability, T/C [17]: 61.1% | viability, T/C [18]: 64.8% | viability, T/C [19]: 37.7% | viability, T/C [20]: 41.6% | viability, T/C (second compound 10 µM, first compound 0.00316 µM): 39.1% | viability, T/C (second compound 10 µM, first compound 0.01 µM): 27.3% | viability, T/C [21]: 29.8% | viability, T/C [22]: 25.3% | viability, T/C [23]: 22% | viability, T/C [24]: 23.5%
